pEC50: −log10 of the molar value.
Key:
Assay in all cases: Transient transfection (transactivation) assay in CV-1 cells, GAL4-PPAR chimera, luciferase reporter
Type in all cases: cell-based
[1] = molecular target: T1, PPAR delta (Homo sapiens, UniProt Q03181)
T1 construct: expressed in transfected cells; host or cells: CV-1 cells
T1 sequence (Q03181 211-439 limits assumed): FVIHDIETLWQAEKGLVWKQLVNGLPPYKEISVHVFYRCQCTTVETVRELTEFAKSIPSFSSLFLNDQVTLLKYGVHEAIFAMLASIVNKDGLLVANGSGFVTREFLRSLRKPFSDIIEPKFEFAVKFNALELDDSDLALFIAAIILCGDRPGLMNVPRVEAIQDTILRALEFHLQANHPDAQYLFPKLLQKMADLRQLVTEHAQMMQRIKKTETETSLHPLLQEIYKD

[2] = molecular target: T2, PPAR gamma (Homo sapiens, UniProt P37231)
T2 construct: expressed in transfected cells; host or cells: CV-1 cells
T2 sequence (P37231 238-503 limits assumed): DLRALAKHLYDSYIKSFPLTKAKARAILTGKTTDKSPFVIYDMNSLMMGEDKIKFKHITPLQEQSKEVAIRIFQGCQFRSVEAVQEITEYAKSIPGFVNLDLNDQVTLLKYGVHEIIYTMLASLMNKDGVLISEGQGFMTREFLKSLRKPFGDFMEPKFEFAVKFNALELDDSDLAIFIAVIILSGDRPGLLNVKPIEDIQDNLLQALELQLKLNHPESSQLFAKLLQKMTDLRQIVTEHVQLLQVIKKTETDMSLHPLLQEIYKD

[3] = molecular target: T3, PPAR alpha (Homo sapiens, UniProt Q07869)
T3 construct: expressed in transfected cells; host or cells: CV-1 cells
T3 sequence (Q07869 239-466 limits assumed): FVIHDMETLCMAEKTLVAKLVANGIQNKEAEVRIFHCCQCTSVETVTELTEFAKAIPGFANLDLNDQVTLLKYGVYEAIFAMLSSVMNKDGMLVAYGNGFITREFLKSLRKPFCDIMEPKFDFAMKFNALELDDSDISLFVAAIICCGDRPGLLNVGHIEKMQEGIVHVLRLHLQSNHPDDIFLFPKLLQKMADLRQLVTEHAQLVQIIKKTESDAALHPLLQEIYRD
In short: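 GAL4 DNA-binding domain fused to PPAR ligand binding domain, co-transfected into CV-1 cells with a luciferase reporter carrying four or five GAL4 sites. Replated cells in phenol-red free DME with 5% delipidated calf serum were treated with compound or 1% DMSO for 20-24 hours; luciferase read for EC50 and efficacy.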

SMILES	pEC50 [1]	pEC50 [2]	pEC50 [3]
Cc1ccc(CC(=O)O)cc1S(=O)(=O)N1CCN(c2ccc(C#N)cc2)CC1 [Example 153, {3-[4-(4-Cyano-phenyl)-piperazine-1-sulfonyl]-4-methyl-phenyl}-acetic acid]	< 4.00	< 4.00	< 4.00
Cc1ccc(CC(=O)O)cc1S(=O)(=O)N1CCN(Cc2ccc(F)cc2)CC1 [Example 154, {3-[4-(4-Fluoro-benzyl)-piperazine-1-sulfonyl]-4-methyl-phenyl}-acetic acid]	< 4.00	4.00 to 5.30	< 4.00
COc1ccc(N2CCN(S(=O)(=O)c3cc(CC(=O)O)ccc3C)CC2)cc1 [Example 155, {3-[4-(4-Methoxy-phenyl)-piperazine-1-sulfonyl]-4-methyl-phenyl}-acetic acid]	< 4.00	< 4.00	< 4.00
Cc1ccc(CC(=O)O)cc1S(=O)(=O)N1CCN(c2ccc(C(C)(C)C)cc2)CC1 [Example 156, {3-[4-(4-tert-Butyl-phenyl)-piperazine-1-sulfonyl]-4-methyl-phenyl}-acetic acid]	4.00 to 5.30	4.00 to 5.30	< 4.00
COc1ccc(N2CCN(S(=O)(=O)c3cc(CC(=O)O)ccc3C)CC2)cc1OC [Example 157, {3-[4-(3,4-Dimethoxy-phenyl)-piperazine-1-sulfonyl]-4-methyl-phenyl}-acetic acid]	< 4.00	< 4.00	< 4.00
Cc1ccc(CC(=O)O)cc1S(=O)(=O)N1CCN(c2ccc(C(F)(F)F)cc2[N+](=O)[O-])CC1 [Example 158, {4-Methyl-3-[4-(2-nitro-4-trifluoromethyl-phenyl)-piperazine-1-sulfonyl]-phenyl}-acetic acid]	4.00 to 5.30	< 4.00	< 4.00
COc1ccccc1N1CCN(S(=O)(=O)c2cc(CC(=O)O)ccc2C)CC1 [Example 159, {3-[4-(2-Methoxy-phenyl)-piperazine-1-sulfonyl]-4-methyl-phenyl}-acetic acid]	< 4.00	< 4.00	< 4.00
Cc1ccc(C)c(N2CCN(S(=O)(=O)c3cc(CC(=O)O)ccc3C)CC2)c1 [Example 160, {3-[4-(2,5-Dimethyl-phenyl)-piperazine-1-sulfonyl]-4-methyl-phenyl}-acetic acid]	< 4.00	4.00 to 5.30	< 4.00
Cc1ccc(CC(=O)O)cc1S(=O)(=O)N1CCN(CC2CCCCC2)CC1 [Example 161, [3-(4-Cyclohexylmethyl-piperazine-1-sulfonyl)-4-methyl-phenyl]-acetic acid]	< 4.00	4.00 to 5.30	< 4.00
Cc1ccc(CC(=O)O)cc1S(=O)(=O)N1CCN(c2ccccc2C#N)CC1 [Example 162, {3-[4-(2-Cyano-phenyl)-piperazine-1-sulfonyl]-4-methyl-phenyl}-acetic acid]	< 4.00	< 4.00	< 4.00
Cc1ccc(CC(=O)O)cc1S(=O)(=O)N1CCN(c2cnccn2)CC1 [Example 163, [4-Methyl-3-(2,3,5,6-tetrahydro-[1,2]bipyrazinyl-4-sulfonyl)-phenyl]-acetic acid]	< 4.00	< 4.00	< 4.00
Cc1ccc(CC(=O)O)cc1S(=O)(=O)N1CCN(C(c2ccccc2)c2ccc(Cl)cc2)CC1 (stereo not drawn) [Example 164]	4.00 to 5.30	4.00 to 5.30	< 4.00
Cc1ccc(CC(=O)O)cc1S(=O)(=O)N1CCN(c2ccc(Cl)c(Cl)c2)CC1 [Example 165, {3-[4-(3,4-Dichloro-phenyl)-piperazine-1-sulfonyl]-4-methyl-phenyl}-acetic acid]	> 5.30	4.00 to 5.30	< 4.00
Cc1cc(CC(=O)O)cc(S(=O)(=O)N2CCN(c3ccc(Cl)c(Cl)c3)CC2)c1 [Example 166, {3-[4-(3,4-Dichloro-phenyl)-piperazine-1-sulfonyl]-5-methyl-phenyl}-acetic acid]	> 5.30	4.00 to 5.30	4.00 to 5.30
Cc1cc(CC(=O)O)cc(S(=O)(=O)N2CCN(c3ccc(Cl)cc3)CC2)c1 [Example 167, {3-[4-(4-Chloro-phenyl)-piperazine-1-sulfonyl]-5-methyl-phenyl}-acetic acid]	> 5.30	4.00 to 5.30	< 4.00
Cc1cccc(N2CCN(S(=O)(=O)c3cc(C)cc(CC(=O)O)c3)CC2C)c1 (stereo not drawn) [Example 168, [3-Methyl-5-(3-methyl-4-m-tolyl-piperazine-1-sulfonyl)-phenyl]-acetic acid]	4.00 to 5.30	4.00 to 5.30	< 4.00

Results, then the compound that gave them:

pEC50 [1]	pEC50 [2]	pEC50 [3]	SMILES
4.00 to 5.30	4.00 to 5.30	< 4.00	Cc1cc(CC(=O)O)cc(S(=O)(=O)N2CCN(c3ccc(C)c(C)c3)CC2)c1 [Example 169, {3-[4-(3,4-Dimethyl-phenyl)-piperazine-1-sulfonyl]-5-methyl-phenyl}-acetic acid]
4.00 to 5.30	< 4.00	< 4.00	Cc1cc(CC(=O)O)cc(S(=O)(=O)N2CCN(c3ccc(F)cc3F)CC2)c1 [Example 170]
4.00 to 5.30	4.00 to 5.30	< 4.00	Cc1cc(CC(=O)O)cc(S(=O)(=O)N2CCN(c3cccc(Cl)c3)CC2)c1 [Example 171, {3-[4-(3-Chloro-phenyl)-piperazine-1-sulfonyl]-5-methyl-phenyl}-acetic acid]
< 4.00	< 4.00	< 4.00	Cc1cc(CC(=O)O)cc(S(=O)(=O)N2CCN(c3ccccc3F)CC2)c1 [Example 172, {3-[4-(2-Fluoro-phenyl)-piperazine-1-sulfonyl]-5-methyl-phenyl}-acetic acid]
4.00 to 5.30	< 4.00	< 4.00	Cc1cc(CC(=O)O)cc(S(=O)(=O)N2CCN(c3ccc(F)cc3)CC2)c1 [Example 173, {3-[4-(4-Fluoro-phenyl)-piperazine-1-sulfonyl]-5-methyl-phenyl}-acetic acid]
< 4.00	< 4.00	< 4.00	Cc1cc(CC(=O)O)cc(S(=O)(=O)N2CCN(c3ccccc3)CC2)c1 [Example 174, [3-Methyl-5-(4-phenyl-piperazine-1-sulfonyl)-phenyl]-acetic acid]
> 5.30	4.00 to 5.30	4.00 to 5.30	Cc1ccc(S(=O)(=O)N2CCN(c3ccc(Cl)c(Cl)c3)CC2)cc1CC(=O)O [Example 175, {5-[4-(3,4-Dichloro-phenyl)-piperazine-1-sulfonyl]-2-methyl-phenyl}-acetic acid]
> 5.30	4.00 to 5.30	< 4.00	Cc1ccc(S(=O)(=O)N2CCN(c3ccc(Cl)cc3)CC2)cc1CC(=O)O [Example 176, {5-[4-(4-Chloro-phenyl)-piperazine-1-sulfonyl]-2-methyl-phenyl}-acetic acid]
4.00 to 5.30	4.00 to 5.30	< 4.00	Cc1cccc(N2CCN(S(=O)(=O)c3ccc(C)c(CC(=O)O)c3)CC2C)c1 (stereo not drawn) [Example 177, [2-Methyl-5-(3-methyl-4-m-tolyl-piperazine-1-sulfonyl)-phenyl]-acetic acid]
4.00 to 5.30	4.00 to 5.30	< 4.00	Cc1ccc(S(=O)(=O)N2CCN(CCc3ccccc3)CC2)cc1CC(=O)O [Example 178, [2-Methyl-5-(4-phenethyl-piperazine-1-sulfonyl)-phenyl]-acetic acid]
